Columns and labels:
[1] = test system: families of European domestic bees; test: 2nd test in the hives: power of the bee family; format: in vivo, Apis mellifera carpatica; details: overall dose 2 mg/hive, 10 hives
Description: The power of the bee colony represents the number of bees present in the honeycomb at the time of the assessment. The assessment is performed three times per year: at the spring visit (March-April), at the end of spring (20-31 May) and at the visit in autumn (September). After these three assessments, the average power of the bee family is determined. The amount of bees (kg) is determined by multiplying the number of intervals between the frames, uniformly occupied by the bees, by the coefficient 0.25 for the standard […] frame (435×300 mm) and by 0.2 for the standard Langstroth frame (435×230 mm). The 2nd test was performed in the same apiary the following year. Feeding with the complex of the invention took place in spring. The biological tests were monitored up to the month of September. The molecules tested, their concentration in solution and their annual overall doses are listed below: • 1. […] The concentration of the complex in syrup: 1.5×10^-7 mol/L. Overall product dose: 2 mg/colony • 2. […] Overall complex dose: 6 mg/colony • 4. LiCH3COO·H2O for comparison, abbreviated as Li-Ac • The feeding is carried out with 2000 g of candy containing 0.8 mg of product then 6 to 7 L of syrup containing 0.2 mg/L of product. The concentration of product in the syrup: 2.36×10^-6 mol/L that is 1.67×10^-5 g/L. Overall product dose: 2 mg/colony

Varroa destructor = test: 2nd test in the hives: degree of infestation of bees with Varroa; format: in vivo; details: for Degree of infestation with Varroa: 100 = 2.32 mite/10 g of bees; for Degree of infestation with Varroa, change versus batch I: value in brackets
Text: The assessment consists in counting the number of Varroa on a sample of adult bees. The value from this count is used as an index for monitoring the level of parasitism in the colony. The method uses icing sugar and a “shaker” jar made of transparent glass with a capacity of 1 kg. The cover is a mesh made of galvanized steel of the type placed at the bottom of the hive, with a mesh size of 3 mm. The mesh allows Varroa mites to pass through but retains the honey bees. The method is implemented according to the following steps: 40 to 50 g of honey bees are collected in the jar (approximately 400 bees), 100 g of icing sugar is added and the shaker jar is rolled for 1 minute so as to cover every bee in icing sugar. The icing sugar then makes it possible to separate the Varroa mites from the body of the host bee so that they drop off. Leave to rest for 1 minute: bees have a delousing behavior, which helps the Varroa mites to drop off. The icing sugar is sieved over a sieve which makes it possible to retain the Varroa mites and then count them. The result is given as the number of mites per 10 g of bees (approximately 100 bees) and can be expressed as a %. This rate is indicative of the Varroa burden in the colony. […] A moderate rate is between 2 and 5 and, in this case, treatment of the colonies must be scheduled. Finally, a rate greater than 5, requires emergency treatment of the colony. Our tests give a result of around 2% for worker bees. The 2nd test was performed in the same apiary the following year. Feeding with the complex of the invention took place in spring. The biological tests were monitored up to the month of September. The molecules tested, their concentration in solution and their annual overall doses are listed below: • 1. […] The concentration of the complex in syrup: 1.5×10^-7 mol/L. Overall product dose: 2 mg/colony • 2. […] Overall complex dose: 6 mg/colony • 4. LiCH3COO·H2O for comparison, abbreviated as Li-Ac • The feeding is carried out with 2000 g of candy containing 0.8 mg of product then 6 to 7 L of syrup containing 0.2 mg/L of product. The concentration of product in the syrup: 2.36×10^-6 mol/L that is 1.67×10^-5 g/L. Overall product dose: 2 mg/colony

[2] = test system: healthy Madin-Darby canine kidney epithelial cells of the MDCK line; test: Resazurin cell proliferation test, MDCK cells; format: cell-based; details: healthy cells; IC50 equal to and greater than 100 μM considered no activity
Text: For cell culture, human cervical epithelial cells of the HeLa line, human epithelial pancreatic adenocarcinoma cells of the BxPC-3 line and healthy Madin-Darby canine kidney epithelial cells of the MDCK line were used in this study. The Resazurin cell proliferation test was applied according to the literature (S. Anoopkumar-Dukie, J. B. Carey, T. Conere, E. O'Sullivan, F. N. van Pelt, A. Allshire, Br J Radiol 2005, 78, 945, DOI: 10.1259/bjr/54004230). As an indicator of the effectiveness of the experimental compounds on cell proliferation, the median inhibitory concentration (IC50) was used. The lower the IC50 value, the higher the activity (in this case, the cytotoxicity).
Five formula I complexes were tested in this study in comparison to two reference anti-cancer compounds (“Cisplatin” and Doxorubicin complex).

Compound | Power of the bee family [1] | Degree of infestation with Varroa (Varroa destructor; overall dose 2 mg/hive) | Degree of infestation with Varroa, change versus batch I (Varroa destructor; overall dose 2 mg/hive) | IC50, MDCK [2] | Degree of infestation with Varroa (Varroa destructor; overall dose 6 mg/hive) | Degree of infestation with Varroa, change versus batch I (Varroa destructor; overall dose 6 mg/hive) | IC50 [2]
CC(=O)[O-].[Li+] [Li—Ac, LiCH3COO·H2O, reference compound] | 97.5 % relative to batch I | 69.0 % relative to batch I | −31% | – | – | – | –
O.O.O.O.O.O.O=C([O-])CN(CCN(CC(=O)[O-])CC(=O)[O-])CC(=O)[O-].[Li+].[Li+].[O]=[Mo+]12[O][Mo+]1(=[O])[O]2 [Li—Mo2O4-EDTA, Li2[Mo2O4 (EDTA)]·6H2O] | 120 % relative to batch I | 52.6 % relative to batch I | −47.4% | Inactive | 38.4 % relative to batch I | −62.6% | –
O.O.O.O.O.O=C([O-])CN(CCN(CC(=O)[O-])CC(=O)[O-])CC(=O)[O-].[Na+].[Na+].[O]=[Mo+]12[O][Mo+]1(=[O])[O]2 [Na—Mo2O4-EDTA, Na2[Mo2O4 (EDTA)]·5H2O] | – | – | – | Inactive | – | – | –
O=C([O-])CN(CCN(CC(=O)[O-])CC(=O)[O-])CC(=O)[O-].[O]=[Mo+]12[O][Mo+]1(=[O])[O]2.c1ccc([P+](c2ccccc2)(c2ccccc2)c2ccccc2)cc1.c1ccc([P+](c2ccccc2)(c2ccccc2)c2ccccc2)cc1 [PPh4—Mo2O4-EDTA, (PPh4)2[Mo2O4 (EDTA)]·2.5H2O] | 120 % relative to batch I | 60.8 % relative to batch I | −39.2% | – | – | – | 60.7 ± 12.1 µM
